In ChEMBL document CHEMBL1208782, “Synthesis and pharmacological validation of a novel series of non-steroidal FXR agonists” (Bioorg Med Chem Lett, 2010) one finds EC50, Efficacy and Emax data, which are given here for three compounds.

Molecules are shown by their SMILES.

What all share (format): functional, cell-based
In series [1] the target is T1, Retinoic acid receptor beta (Homo sapiens, UniProt P10826).
T1 sequence (P10826 whole entry): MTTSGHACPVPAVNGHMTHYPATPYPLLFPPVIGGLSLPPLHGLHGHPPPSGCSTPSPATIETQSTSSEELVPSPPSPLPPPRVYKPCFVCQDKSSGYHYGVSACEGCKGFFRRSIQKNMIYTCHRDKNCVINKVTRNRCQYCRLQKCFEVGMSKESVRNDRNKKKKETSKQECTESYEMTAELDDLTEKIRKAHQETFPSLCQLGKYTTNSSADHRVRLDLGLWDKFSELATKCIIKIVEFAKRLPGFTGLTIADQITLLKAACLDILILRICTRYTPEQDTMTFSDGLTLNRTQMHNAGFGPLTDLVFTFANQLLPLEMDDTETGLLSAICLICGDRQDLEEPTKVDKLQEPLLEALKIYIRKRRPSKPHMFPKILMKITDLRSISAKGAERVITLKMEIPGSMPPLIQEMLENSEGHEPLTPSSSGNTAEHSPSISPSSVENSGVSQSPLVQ
As to the kind of experiment: Agonist activity at RARbeta-LBD expressed in HEK293 cells assessed as Gal4-DBD interaction by cellular mammalian one hybrid assay.

The target in series [2] is T2, Peroxisome proliferator-activated receptor delta (Homo sapiens) (UniProt Q03181).
T2 sequence (whole entry): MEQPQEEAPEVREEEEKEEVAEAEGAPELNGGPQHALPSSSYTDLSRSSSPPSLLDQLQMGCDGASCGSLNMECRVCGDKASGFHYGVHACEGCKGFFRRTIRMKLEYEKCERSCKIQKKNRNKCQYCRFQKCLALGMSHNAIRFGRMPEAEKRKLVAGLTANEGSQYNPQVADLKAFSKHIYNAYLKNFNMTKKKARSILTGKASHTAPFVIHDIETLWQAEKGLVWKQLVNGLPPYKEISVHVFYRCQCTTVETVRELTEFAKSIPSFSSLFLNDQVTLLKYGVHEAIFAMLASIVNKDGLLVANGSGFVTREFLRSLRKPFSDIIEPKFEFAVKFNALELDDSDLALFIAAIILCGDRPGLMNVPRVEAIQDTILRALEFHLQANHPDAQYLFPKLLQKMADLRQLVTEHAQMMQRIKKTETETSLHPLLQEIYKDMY
Description: Agonist activity at PPAR-beta/delta-LBD expressed in HEK293 cells assessed as Gal4-DBD interaction by cellular mammalian one hybrid assay relative to control.

The target of series [3] is T3, CAR (nuclear receptor subfamily 1 group I member 3) (Homo sapiens, UniProt Q14994).
T3 sequence (Q14994 whole entry): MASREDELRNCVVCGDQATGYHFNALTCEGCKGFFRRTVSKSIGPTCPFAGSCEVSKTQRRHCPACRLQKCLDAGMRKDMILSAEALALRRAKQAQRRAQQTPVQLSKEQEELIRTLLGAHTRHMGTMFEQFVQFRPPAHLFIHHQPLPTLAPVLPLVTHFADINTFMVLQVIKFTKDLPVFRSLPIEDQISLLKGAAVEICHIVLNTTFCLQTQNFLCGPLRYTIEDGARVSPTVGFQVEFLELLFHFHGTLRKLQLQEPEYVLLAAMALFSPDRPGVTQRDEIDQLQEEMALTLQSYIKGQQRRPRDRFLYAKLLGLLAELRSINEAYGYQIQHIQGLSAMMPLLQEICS
As to the kind of experiment: Agonist activity at CAR-LBD expressed in HEK293 cells assessed as Gal4-DBD interaction by cellular mammalian one hybrid assay relative to androstane. The settings on record: HEK293 cells expressing CAR-LBD, read-out: Efficacy.

Series [4] addresses T4, Vitamin D3 receptor (Homo sapiens, UniProt P11473).
T4 sequence (P11473 whole entry): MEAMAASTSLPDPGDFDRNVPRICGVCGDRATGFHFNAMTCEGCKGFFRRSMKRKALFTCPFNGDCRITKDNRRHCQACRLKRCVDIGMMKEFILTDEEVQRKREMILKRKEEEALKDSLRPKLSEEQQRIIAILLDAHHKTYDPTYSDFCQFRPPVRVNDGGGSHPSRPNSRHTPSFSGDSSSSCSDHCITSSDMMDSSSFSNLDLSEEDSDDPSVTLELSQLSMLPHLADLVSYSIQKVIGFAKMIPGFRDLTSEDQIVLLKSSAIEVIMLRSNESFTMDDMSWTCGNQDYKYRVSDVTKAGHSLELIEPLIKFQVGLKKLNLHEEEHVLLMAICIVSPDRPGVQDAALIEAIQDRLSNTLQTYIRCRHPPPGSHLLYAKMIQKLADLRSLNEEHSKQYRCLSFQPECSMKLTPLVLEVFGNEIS
Description: Agonist activity at VDR-LBD expressed in HEK293 cells assessed as Gal4-DBD interaction by cellular mammalian one hybrid assay.

Series [5] has as its target T5, Oxysterols receptor LXR-beta (Homo sapiens) (UniProt P55055).
T5 sequence (whole entry): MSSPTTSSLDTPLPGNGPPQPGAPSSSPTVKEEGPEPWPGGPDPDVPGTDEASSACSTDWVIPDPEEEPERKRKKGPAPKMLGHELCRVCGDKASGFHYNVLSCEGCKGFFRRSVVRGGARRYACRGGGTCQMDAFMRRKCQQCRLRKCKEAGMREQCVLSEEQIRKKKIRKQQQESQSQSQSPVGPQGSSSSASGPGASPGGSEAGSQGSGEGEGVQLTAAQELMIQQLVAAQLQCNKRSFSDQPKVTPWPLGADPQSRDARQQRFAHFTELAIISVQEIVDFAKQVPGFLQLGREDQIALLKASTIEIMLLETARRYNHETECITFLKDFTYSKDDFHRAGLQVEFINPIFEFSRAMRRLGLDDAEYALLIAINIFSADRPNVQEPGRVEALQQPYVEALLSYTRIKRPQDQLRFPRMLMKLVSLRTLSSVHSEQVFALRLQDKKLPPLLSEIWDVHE
Description: Agonist activity at LXRbeta-LBD expressed in HEK293 cells assessed as Gal4-DBD interaction by cellular mammalian one hybrid assay relative to T0901317.

Usually EC50 stands for the concentration needed to bring the measured effect to its halfway point. In the case of `CN(Cc1ccc(C(=O)O)cc1)c1ccc(OCc2c(-c3c(Cl)cccc3Cl)noc2C2CC2)nc1C(F)(F)F`, the 50% effective concentration (EC50) in series [1] and in series [4] was > 10 µM each time. In addition, the Efficacy in series [2] and in series [5] was 0% in each case. Also, in series [3], the Emax was determined as 0%.
Regarding `CN(Cc1cccc(C(=O)O)c1)c1ccc(OCc2c(-c3c(Cl)cccc3Cl)noc2C2CC2)nc1C(F)(F)F`, the EC50 in series [1] and in series [4] was > 10 µM in each case. Also, the Efficacy in series [2] and in series [5] was 0% throughout. Besides, the Emax in series [3] was 0%.
With `CC(C)c1onc(-c2c(Cl)cccc2Cl)c1COc1ccc(N(C)Cc2ccc(C(=O)O)cc2)c(C(F)(F)F)n1`, the EC50 in series [1] and in series [4] was > 10 µM in each case. The Efficacy in series [2] and in series [5] was 0% in each case. Besides, in series [3], the Emax was determined as 0%.
